pEC50, pIC50: −log10 of the molar value. Where two headings read alike, the source gives them in different places.

In one assay the test system is HIV-1ADA. In words: antiviral assay in monocyte-macrophage cultures (p24). It is filed as cell-based. Particulars: Human immunodeficiency virus 1. The procedure:
(§1) Initial anti-HIV screening was performed with CEM-SS cells and HIV-1RFusing the XTT cytoprotection assay as previously described (Weislow et al., J. National Cancer Inst. 81: 577-586, (1989)). HIV-1 isolates included common laboratory stains (RF, IIIB and MN), as well as a panel of HIV-1 clinical isolates (Cushman et al., J. Med. Chem. 37: 3040-3050, (1994)). The pyridone-resistant HIV-1A17 isolate (Nunberg et al., J. Virol., 65: 4887-4892 (1991)) was obtained from Emilio Emini at Merck Sharpe and Dohme Laboratories. Phytohemagglutinin-stimulated human peripheral blood lymphocytes (PBLs) and fresh monocyte-macrophage (Mono/MF) cultures were prepared and utilized in antiviral assays as previously described (Rice et al., Proc. Nat'l. Academy Science, USA 90: 9721-9724, (1993)); (Cushman et al., J. Med. Chem. 37: 3040-3050, (1994)). EC50 values for these cultures indicate the drug concentration that provided a 50% reduction in viral p24 production. […] The compounds can be synthesized according to the teachings of Singh et al., Sulfur Letters 8: 107-114, (1988). The 4,5-cis-dihydroxy(1,1-dioxy-1,2,-dithiohexane) compound (NSC 624151) has been abbreviated as 624151 for convenience. MT-2, MT-4, U1, HeLa-CD4-LTR-β-gal and 174xCEM cells were obtained from the AIDS Research and Reference Program (National Institute of Allergy and Infectious Disease, National Institutes of Health, Bethesda, Md. USA), as were the HIV-2MS and the AZT-resistant HIV-1G910-6 isolates. […]

Another assay relates to HIV-1 WEJO(SI). The experiment in a line: antiviral assay in PBL (p24), clinical isolate WEJO. It is filed as cell-based. Particulars: Human immunodeficiency virus 1, cell-free p24. The procedure:
as §1, with “convenience.” for “convenience. MT-2, MT-4, U1, HeLa-CD4-LTR-β-gal and 174xCEM cells were obtained from the AIDS Research and Reference Program (National Institute of Allergy and Infectious Disease, National Institutes of Health, Bethesda, Md. USA), as were the HIV-2MS and the AZT-resistant HIV-1G910-6 isolates.”

In the next assay the test system is HIV-1 BAKI(SI). The experiment in a line: antiviral assay in PBL (p24), clinical isolate BAKI. The following applies: Human immunodeficiency virus 1, cell-free p24. Format: cell-based. The procedure:
as §1, with “convenience.” for “convenience. MT-2, MT-4, U1, HeLa-CD4-LTR-β-gal and 174xCEM cells were obtained from the AIDS Research and Reference Program (National Institute of Allergy and Infectious Disease, National Institutes of Health, Bethesda, Md. USA), as were the HIV-2MS and the AZT-resistant HIV-1G910-6 isolates.”

A further assay concerns HIV-1 Ba-L. The experiment in a line: antiviral assay in Mo/M.PHI. (p24), Ba-L. It is filed as cell-based. The following applies: Human immunodeficiency virus 1, BAL, cell-free p24. The procedure: as §1, with “convenience.” for “convenience. MT-2, MT-4, U1, HeLa-CD4-LTR-β-gal and 174xCEM cells were obtained from the AIDS Research and Reference Program (National Institute of Allergy and Infectious Disease, National Institutes of Health, Bethesda, Md. USA), as were the HIV-2MS and the AZT-resistant HIV-1G910-6 isolates.”

In the next assay the test system is HIV-1NL4-3 4XAZT. In words: XTT cytopathicity assay, NL4-3 site-directed RT mutant. It is filed as cell-based. The following applies: MT-2, NL4-3 4XAZT. The procedure:
(§2) Initial anti-HIV screening was performed with CEM-SS cells and HIV-1RFusing the XTT cytoprotection assay as previously described (Weislow et al., J. National Cancer Inst. 81: 577-586, (1989)). HIV-1 isolates included common laboratory stains (RF, IIIB and MN), as well as a panel of HIV-1 clinical isolates (Cushman et al., J. Med. Chem. 37: 3040-3050, (1994)). The pyridone-resistant HIV-1A17 isolate (Nunberg et al., J. Virol., 65: 4887-4892 (1991)) was obtained from Emilio Emini at Merck Sharpe and Dohme Laboratories. Phytohemagglutinin-stimulated human peripheral blood lymphocytes (PBLs) and fresh monocyte-macrophage (Mono/MF) cultures were prepared and utilized in antiviral assays as previously described (Rice et al., Proc. Nat'l. Academy Science, USA 90: 9721-9724, (1993)); (Cushman et al., J. Med. Chem. 37: 3040-3050, (1994)). EC50 values for these cultures indicate the drug concentration that provided a 50% reduction in viral p24 production. […] The compounds can be synthesized according to the teachings of Singh et al., Sulfur Letters 8: 107-114, (1988). The 4,5-cis-dihydroxy(1,1-dioxy-1,2,-dithiohexane) compound (NSC 624151) has been abbreviated as 624151 for convenience. MT-2, MT-4, U1, HeLa-CD4-LTR-β-gal and 174xCEM cells were obtained from the AIDS Research and Reference Program (National Institute of Allergy and Infectious Disease, National Institutes of Health, Bethesda, Md. USA), as were the HIV-2MS and the AZT-resistant HIV-1G910-6 isolates.
(§3) ^a Anti-HIV studies utilizing lymphocytederived cell lines were
(§4) performed using the XTT cytopathicity assay, while antiviral assays
For orientation: Formazan colour is commonly taken as a measure of viable cells.

The subject of another assay is HIV-1NL4-3 A986. Described as above. Format: cell-based. Particulars: MT-2, NL4-3 A986. The procedure: as §2, §3, §4
The next assay relates to HIV-1NL4-3 K103N. Described as above. The following applies: MT-2, NL4-3 K103N. Format: cell-based. The procedure: as §2, §3, §4
The test system of a further assay is HIV-1NL4-3 L74V. The assay is described as above. It is filed as cell-based. The following applies: MT-2, NL4-3 L74V. The procedure: as §2, §3, §4
In another assay the test system is HIV-1NL4-3 V1061. The assay is described as above. It is filed as cell-based. Particulars: MT-2, NL4-3 V1061. The procedure:
as §2, §3, §4

The test system of a further assay is HIV-1NL4-3 V1081. The description is as above. It is filed as cell-based. The following applies: MT-2, NL4-3 V1081. The procedure:
as §2, §3, §4

In another assay the test system is HIV-1NL4-3 V179D. The description is as above. The following applies: MT-2, NL4-3 V179D. It is filed as cell-based. The procedure:
as §2, §3, §4

The test system of a further assay is HIV-1NL4-3 Y181C. The assay is described as above. Format: cell-based. Particulars: MT-2, NL4-3 Y181C. The procedure: as §2, §3, §4
A further assay relates to HIV-1NL4-3 Y188C. The description is as above. It is filed as cell-based. The following applies: MT-2, NL4-3 Y188C. The procedure: as §2, §3, §4
The next assay concerns the target T1, HIV-1 p66-p51 RT (Human immunodeficiency virus type 1 group M subtype B, UniProt P04585).
T1 construct: the purified HIV-1 p66-p51 RT enzyme
The experiment in a line: reverse transcriptase activity assay. It is filed as biochemical. Particulars: for inhibition of HIV-1 RT: in words. The procedure:
The effects of 624151 on the in vitro activity of purified RT was determined by measurement of incorporation of [^3 H]TTP onto the poly(rA):oligo(dT)(rAdT) or poly(rC):oligo(dG)(rCdG) homopolymer template/primer systems. Samples (5 μL) were blotted onto DE81 paper, washed with 5% dibasic sodium phosphate as previously described (Buckheit et al., Antiviral Res. 21:247, (1993)), and then quantitated on a Packard Matrix 9600 dual beam counter. 3'-Azido-3'-deoxythymidine-5 '-triphosphateand UC38 (NSC 629243) served as positive controls for inhibition of RT. HIV-1 protease activity was quantitated by a reversed phase HPLC assay utilizing the […]Amide substrate (Multiple Peptide Systems, San Diego, Calif.) as previously described in Rice et al. (Proc. Nat'l. Academy of Science USA 9: 9721-9724, (1993)).

On to `O=S1(=O)C[C@H](O)[C@H](O)CS1` (relative stereo) [NSC 624151, cis-1,1-dioxo[1,2]dithiane-4,5-diol], for which the pEC50 with HIV-1ADA (HIV-1ADA, monocyte/macrophage cultures, 50% reduction in p24, read-out: Mo/M.PHI. EC50) was 5.10; with HIV-1ADA (Mo/M.PHI., ADA, cell-free p24, Table 2, read-out: EC50), 5.68; with HIV-1 WEJO(SI), 5.12; in the assay with HIV-1 BAKI(SI), 4.72; in the assay on HIV-1 Ba-L it was 5.21; in the assay on HIV-1NL4-3 4XAZT, 4.97. The pEC50 with HIV-1NL4-3 A986 is 4.58; in the assay on HIV-1NL4-3 K103N, 4.76; with HIV-1NL4-3 L74V, 4.70; with HIV-1NL4-3 V1061, 4.68; in the assay with HIV-1NL4-3 V1081, 4.70; in the assay on HIV-1NL4-3 V179D, 4.69. For the same compound, the pEC50 in the assay with HIV-1NL4-3 Y181C was 4.68; with HIV-1NL4-3 Y188C it was 4.71. For the same compound, the “inhibition of HIV-1 RT” value against HIV-1 p66-p51 RT (rAdT template/primer) and against HIV-1 p66-p51 RT (rCdG template/primer) was “not inhibited” each time. Besides, at HIV-1 p66-p51 RT (rAdT, read-out: RT Activity rAdT ID50), the pIC50 is under 4.00.

The values are drawn from US6046228A, “Anti-viral pharmaceutical compositions containing saturated 1,2-dithiaheterocyclic compounds and uses thereof” (priority 1999, dated 2000).
